Results: patent US12077503B2, “Substituted cyclic amides and their use as herbicides” (FMC CORPORATION, priority 2015, dated 2024)

Legend:
Assay type in all cases: in vivo
[1] = system: pigweed (Amaranthus retroflexus); experiment: Test A postemergence; conditions: Amaranthus retroflexus, post-emergence, 240 h, Postemergence, read-out: Plant response rating, Pigweed
Summary of the method: (§1)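 Seeds sprayed preemergence with a directed soil spray, or plants at 2 to 10 cm height and one- to two-leaf stage sprayed postemergence, with test chemicals in a non-phytotoxic solvent mixture containing surfactant, in loam soil–sand blend. Injury rated visually against untreated controls after about 10 d in greenhouse, 0 (no effect) to 100 (complete control).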

[2] = system: ryegrass, Italian (Italian ryegrass, Lolium multiflorum); experiment: Test A postemergence; conditions: Lolium multiflorum, post-emergence, 240 h, Postemergence, read-out: Plant response rating, Ryegrass, Italian
Summary of the method: as §1

[3] = system: giant foxtail (Setaria faberii); experiment: Test A postemergence; conditions: Setaria faberi, post-emergence, 240 h, Postemergence, read-out: Plant response rating, Foxtail, Giant
Summary of the method: as §1

[4] = system: wheat (Triticum aestivum); experiment: Test A postemergence; conditions: Triticum aestivum, post-emergence, 240 h, Postemergence, read-out: Plant response rating, Wheat
Summary of the method: as §1

corn (Zea mays) = experiment: Test A postemergence; conditions: Zea mays, post-emergence, 240 h, Postemergence
Summary of the method: as §1

[5] = system: Galium (catchweed bedstraw, Galium aparine); experiment: Test A postemergence; conditions: Galium, post-emergence, 240 h, Postemergence, read-out: Plant response rating, Galium
Summary of the method: as §1

[6] = system: ragweed (common ragweed, Ambrosia elatior); experiment: Test A postemergence; conditions: Ambrosia artemisiifolia, post-emergence, 240 h, Postemergence, read-out: Plant response rating, Ragweed
Summary of the method: as §1

[7] = system: blackgrass (Alopecurus myosuroides); experiment: Test A postemergence; conditions: Alopecurus myosuroides, post-emergence, 240 h, Postemergence, read-out: Plant response rating, Blackgrass
Summary of the method: as §1

Kochia (Kochia scoparia) [8] = experiment: Test A postemergence; conditions: Bassia scoparia, post-emergence, 240 h, Postemergence, read-out: Plant response rating, Kochia
Summary of the method: as §1

[9] = system: barnyardgrass (Echinochloa crus-galli); experiment: Test A postemergence; conditions: Echinochloa crus-galli, post-emergence, 240 h, Postemergence, read-out: Plant response rating, Barnyardgrass
Summary of the method: as §1

rice (Oryra sativa) = experiment: Test B flooded paddy test; conditions: Oryza sativa, 250 g ai/ha, Flood; 0 to 100 scale where 0 is no effect and 100 is complete control; read-out: Rice plant response rating
Summary of the method: (§2)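 Evaluation by eye, against controls, occurred 13–15 d post-treatment in a greenhouse, using a 0 (no effect) to 100 (complete control) scale. Application was into the paddy water, 3 cm deep over the soil, on 2-leaf plants.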

[10] = system: sedge, umbrella (small-flower umbrella sedge, Cyperus difformis); experiment: Test B flooded paddy test; conditions: Cyperus difformis, 250 g ai/ha, Flood; 0 to 100 scale where 0 is no effect and 100 is complete control; read-out: Sedge, Umbrella plant response rating
Summary of the method: as §2

[11] = system: ducksalad (Heteranthera limosa); experiment: Test B flooded paddy test; conditions: Heteranthera limosa, 250 g ai/ha, Flood; 0 to 100 scale where 0 is no effect and 100 is complete control; read-out: Ducksalad plant response rating
Summary of the method: as §2

[12] = system: barnyardgrass (Echinochloa crus-galli); experiment: Test B flooded paddy test; conditions: Echinochloa crus-galli, 250 g ai/ha, Flood; 0 to 100 scale where 0 is no effect and 100 is complete control; read-out: Barnyardgrass plant response rating
Summary of the method: as §2

[13] = system: pigweed (Amaranthus retroflexus); experiment: Test A preemergence; conditions: Amaranthus retroflexus, pre-emergence, 240 h, Preemergence
[14] = system: ryegrass, Italian (Italian ryegrass, Lolium multiflorum); experiment: Test A preemergence; conditions: Lolium multiflorum, pre-emergence, 240 h, Preemergence
Summary of the method: as §1

[15] = system: giant foxtail (Setaria faberii); experiment: Test A preemergence; conditions: Setaria faberi, pre-emergence, 240 h, Preemergence
Summary of the method: as §1

[16] = system: ragweed (common ragweed, Ambrosia elatior); experiment: Test A preemergence; conditions: Ambrosia artemisiifolia, pre-emergence, 240 h, Preemergence
Summary of the method: as §1

Kochia (Kochia scoparia) [17] = experiment: Test A preemergence; conditions: Bassia scoparia, pre-emergence, 240 h, Preemergence
Summary of the method: as §1

[18] = system: barnyardgrass (Echinochloa crus-galli); experiment: Test A preemergence; conditions: Echinochloa crus-galli, pre-emergence, 240 h, Preemergence
Summary of the method: as §1

[19] = 125 g ai/ha, visual injury after approximately 10 d, 0 to 100 scale where 0 is no effect and 100 is complete control
[20] = 31 g ai/ha, visual injury after approx. 10 d, 0 to 100 scale, 0 no effect, 100 complete control

O=C(Nc1cccc(F)c1F)[C@H]1C(=O)N(O)CC[C@@H]1c1ccccc1 [Compound 1007]
0%: pest or weed control at 125 g/ha [1, 19] | pest or weed control at 31 g/ha [1, 20] | pest or weed control at 125 g/ha [2, 19] | pest or weed control at 31 g/ha [2, 20] | pest or weed control at 125 g/ha [3, 19] | pest or weed control at 31 g/ha [3, 20] | plant injury at 125 g/ha [4, 19] | plant injury at 31 g/ha [4, 20] | Corn plant response rating (crop injury, 0 = no effect, 100 = complete kill) at 125 g/ha (corn (Zea mays); [19]) | Corn plant response rating (crop injury, 0 = no effect, 100 = complete kill) at 31 g/ha (corn (Zea mays); [20]) | pest or weed control at 125 g/ha [5, 19] | pest or weed control at 31 g/ha [5, 20] | pest or weed control at 125 g/ha [6, 19] | pest or weed control at 31 g/ha [6, 20] | pest or weed control at 125 g/ha [7, 19] | pest or weed control at 31 g/ha [7, 20] | pest or weed control at 125 g/ha (Kochia (Kochia scoparia) [8]; [19]) | pest or weed control at 31 g/ha (Kochia (Kochia scoparia) [8]; [20]) | pest or weed control at 125 g/ha [9, 19] | pest or weed control at 31 g/ha [9, 20] | pest or weed control at 250 g/ha (rice (Oryra sativa)) | pest or weed control at 250 g/ha [10] | pest or weed control at 250 g/ha [11] | pest or weed control at 250 g/ha [12] | pest or weed control at 31 g/ha ([13]; 31 g ai/ha, 0 to 100 scale where 0 is no effect and 100 is complete control, read-out: Pigweed plant response rating) | pest or weed control at 125 g/ha ([13]; 125 g ai/ha, visual injury rating after approximately 10 d, read-out: Pigweed plant response rating (0 to 100 scale, 0 is no effect, 100 is complete control)) | pest or weed control at 31 g/ha ([14]; 31 g ai/ha, 0 to 100 scale where 0 is no effect and 100 is complete control, read-out: Ryegrass, Italian plant response rating) | pest or weed control at 125 g/ha ([14]; 125 g ai/ha, visual injury rating after approximately 10 d, read-out: Ryegrass, Italian plant response rating (0 to 100 scale, 0 is no effect, 100 is complete control)) | pest or weed control at 125 g/ha ([15]; 125 g ai/ha, visual injury rating after approximately 10 d, read-out: Foxtail, Giant plant response rating (0 to 100 scale, 0 is no effect, 100 is complete control)) | pest or weed control at 31 g/ha ([15]; 31 g ai/ha, 0 to 100 scale (0 no effect, 100 complete control), read-out: Plant response rating, Foxtail, Giant) | pest or weed control at 31 g/ha ([16]; 31 g ai/ha, 0 to 100 scale where 0 is no effect and 100 is complete control, read-out: Ragweed plant response rating) | pest or weed control at 125 g/ha ([16]; 125 g ai/ha, visual injury rating after approximately 10 d, read-out: Ragweed plant response rating (0 to 100 scale, 0 is no effect, 100 is complete control)) | pest or weed control at 31 g/ha (Kochia (Kochia scoparia) [17]; 31 g ai/ha, 0 to 100 scale where 0 is no effect and 100 is complete control, read-out: Kochia plant response rating) | pest or weed control at 125 g/ha (Kochia (Kochia scoparia) [17]; 125 g ai/ha, visual injury rating after approximately 10 d, read-out: Kochia plant response rating (0 to 100 scale, 0 is no effect, 100 is complete control)) | pest or weed control at 125 g/ha ([18]; 125 g ai/ha, visual injury rating after approximately 10 d, read-out: Barnyardgrass plant response rating (0 to 100 scale, 0 is no effect, 100 is complete control)) | pest or weed control at 31 g/ha ([18]; 31 g ai/ha, 0 to 100 scale (0 no effect, 100 complete control), read-out: Plant response rating, Barnyardgrass)
